Assay results from US20250154169A1, “COMPOUNDS AND METHODS FOR MODULATING SPLICING” (REMIX THERAPEUTICS INC., priority 2021, published 2025).
pIC50: −log10 of the molar value. Where a name gives a salt, the structure may show the parent alone. Read-outs that look alike come from different tables or passages of the source.

What was measured:
Type in all cases: cell-based, human
Target C mRNA = experiment: Splicing RT-qPCR gene panel, Target C canonical junction (CJ) mRNA; settings: Tables 4A/4B, read-out: Target C (IC50, decrease in CJ mRNA, gene panel)
Method in brief: (§1)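 First, A673 cells adhered 24 h before dosing, while K562 cells were plated and dosed directly. Both lines were then exposed to compound for 24 h at 37 °C, 5% CO2, top concentration 10 uM. Finally, lysates underwent RT-qPCR of the canonical junction, with ΔΔCt-based relative quantification.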

SMN2 mRNA = experiment: Splicing RT-qPCR gene panel, SMN2 canonical junction (CJ) mRNA; settings: Homo sapiens, Tables 4A/4B, read-out: SMN2 (IC50, decrease in CJ mRNA, gene panel)
Method in brief: as §1

MYB mRNA = experiment: Splicing RT-qPCR assay, MYB canonical (CJ) and alternative (AJ) junction mRNA; settings: Homo sapiens
Method in brief: (§2)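 Compound-induced exon inclusion is tracked as an increase in AJ transcript alongside the CJ transcript. Cells (A673 normalized to PPIA; K562 to GAPDH or GUSB) are dosed 24 h with a serial dilution topping at 10 uM, ≤0.25% DMSO, then lysed and analysed by RT-qPCR in at least duplicate.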

HTT mRNA [1] = experiment: Splicing RT-qPCR assay, HTT canonical (CJ) and alternative (AJ) junction mRNA; settings: Homo sapiens
Method in brief: as §2

HTT mRNA [2] = experiment: Splicing RT-qPCR gene panel, HTT canonical junction (CJ) mRNA; settings: Homo sapiens, Tables 4A/4B, read-out: HTT (IC50, decrease in CJ mRNA, gene panel)
Method in brief: as §1

[3] = 24 h, A673 or K562 cells, 24 hours compound treatment, RT-qPCR, read-out: MYB AJ (AC50, increase in alternative junction mRNA)
[4] = 24 h, A673 or K562 cells, 24 hours compound treatment, RT-qPCR, read-out: MYB CJ (IC50, decrease in canonical junction mRNA)
[5] = Tables 4A/4B, canonical junction qPCR panel, read-out: MYB (IC50, decrease in CJ mRNA, gene panel)
[6] = 24 h, A673 or K562 cells, 24 hours compound treatment, read-out: HTT CJ (IC50, decrease in canonical junction mRNA)
[7] = A673 or K562 cells, 24 hours compound treatment, read-out: HTT AJ (AC50, increase in alternative junction mRNA)

SMILES	pIC50 (Target C mRNA; Homo sapiens)	pIC50 (SMN2 mRNA)	pIC50 (MYB mRNA; [4])	pIC50 (MYB mRNA; [5])	pIC50 (HTT mRNA [1]; [6])	pIC50 (HTT mRNA [2])	pIC50 (MYB mRNA; Table 3B, canonical junction mRNA, RT-qPCR, read-out: MYB CJ (IC50, decrease in CJ mRNA))	pIC50 (HTT mRNA [1]; Table 3B, canonical junction mRNA, read-out: HTT CJ (IC50, decrease in CJ mRNA))	pIC50 (Target C mRNA)	AC50 (MYB mRNA; [3]) [nM]	AC50 (HTT mRNA [1]; [7]) [nM]	AC50 (MYB mRNA; Table 3B, alternative junction mRNA, RT-qPCR, read-out: MYB AJ (AC50, increase in AJ mRNA)) [nM]	AC50 (HTT mRNA [1]; Table 3B, alternative junction mRNA, read-out: HTT AJ (AC50, increase in AJ mRNA)) [nM]
CCn1cc2c(N3C[C@@H](C)N[C@@H](C)C3)ccc(C(=O)Nc3cc(F)c4nc(C)cn4c3)c2n1 [Compound 377, 4-[(3R,5S)-3,5-dimethylpiperazin-1-yl]-2-ethyl-N-{8-fluoro-2-methylimidazo[1,2-a]pyridin-6-yl}indazole-7-carboxamide]	5.00 to 6.00	> 7.00	6.00 to 7.00	> 7.00	5.00 to 6.00	5.00 to 6.00	–	–	–	100 to 1000	1000 to 10000	–	–
CCn1cc2c(N3CCNCC3)ncc(C(=O)Nc3cc(F)c4nc(C)cn4c3)c2n1 [Compound 950]	< 5.00	> 7.00	–	> 7.00	–	6.00 to 7.00	> 7.00	6.00 to 7.00	–	–	–	100 to 1000	100 to 1000
COc1c(NC(=O)c2ccc(N3CCNCC3)c3cn(C)nc23)cc2cn(C)nc2c1F [Compound 315, N-(7-fluoro-6-methoxy-2-methylindazol-5-yl)-2-methyl-4-(piperazin-1-yl) indazole-7-carboxamide hydrochloride]	6.00 to 7.00	> 7.00	> 7.00	> 7.00	6.00 to 7.00	6.00 to 7.00	–	–	–	< 100	100 to 1000	–	–
Cc1cn2c(n1)CCC(NC(=O)c1ccc(N3CCNCC3)c3cn(C)nc13)C2 (stereo not drawn) [Compound 457, 2-methyl-N-{2-methyl-5H,6H,7H,8H-imidazo[1,2-a]pyridin-6-yl}-4-(piperazin-1-yl) indazole-7-carboxamide]	< 5.00	< 5.00	< 5.00	< 5.00	< 5.00	< 5.00	–	–	–	> 10000	> 10000	–	–
Cc1cn2cc(NC(=O)c3ccc(N4CCC(N5CCCC5)C4)c4cc(C)oc34)cc(F)c2n1 (stereo not drawn) [Compound 204]	5.00 to 6.00	> 7.00	6.00 to 7.00	6.00 to 7.00	5.00 to 6.00	5.00 to 6.00	–	–	–	100 to 1000	1000 to 10000	–	–
CCn1cc2c(N3CCNC(CF)C3)ccc(C(=O)Nc3cc(F)c4nc(C)cn4c3)c2n1 (stereo not drawn) [Compound 453, 2-ethyl-N-{8-fluoro-2-methylimidazo[1,2-a]pyridin-6-yl}-4-[3-(fluoromethyl)piperazin-1-yl]indazole-7-carboxamide]	< 5.00	6.00 to 7.00	5.00 to 6.00	5.00 to 6.00	< 5.00	< 5.00	–	–	–	1000 to 10000	> 10000	–	–

Second part, led by results:

pIC50 (Target C mRNA; Homo sapiens)	pIC50 (SMN2 mRNA)	pIC50 (MYB mRNA; [4])	pIC50 (MYB mRNA; [5])	pIC50 (HTT mRNA [1]; [6])	pIC50 (HTT mRNA [2])	pIC50 (MYB mRNA; Table 3B, canonical junction mRNA, RT-qPCR, read-out: MYB CJ (IC50, decrease in CJ mRNA))	pIC50 (HTT mRNA [1]; Table 3B, canonical junction mRNA, read-out: HTT CJ (IC50, decrease in CJ mRNA))	pIC50 (Target C mRNA)	SMILES	AC50 (MYB mRNA; [3]) [nM]	AC50 (HTT mRNA [1]; [7]) [nM]	AC50 (MYB mRNA; Table 3B, alternative junction mRNA, RT-qPCR, read-out: MYB AJ (AC50, increase in AJ mRNA)) [nM]	AC50 (HTT mRNA [1]; Table 3B, alternative junction mRNA, read-out: HTT AJ (AC50, increase in AJ mRNA)) [nM]
–	> 7.00	> 7.00	> 7.00	6.00 to 7.00	6.00 to 7.00	–	–	5.00 to 6.00	Cc1cn2cc(NC(=O)c3ccc(N4CCNCC4)c4cn(C)nc34)cc(Cl)c2n1 [Compound 269]	< 100	100 to 1000	–	–
5.00 to 6.00	> 7.00	> 7.00	> 7.00	5.00 to 6.00	5.00 to 6.00	–	–	–	Cc1cn2cc(NC(=O)c3ccc(N4CCC(NCc5ccccn5)CC4)c4cn(C)nc34)cc(F)c2n1 [Compound 347, N-{8-fluoro-2-methylimidazo[1,2-a]pyridin-6-yl}-2-methyl-4-{4-[(pyridin-2-ylmethyl)amino]piperidin-1-yl}indazole-7-carboxamide]	< 100	1000 to 10000	–	–
< 5.00	> 7.00	6.00 to 7.00	6.00 to 7.00	< 5.00	< 5.00	–	–	–	CCOc1nc(NC(=O)c2ccc(N3CCC(NC)C3)c3cn(C)nc23)cn2cc(C)nc12 (stereo not drawn) [Compound 420, N-{8-ethoxy-2-methylimidazo[1,2-a]pyrazin-6-yl}-2-methyl-4-[3-(methylamino)pyrrolidin-1-yl]indazole-7-carboxamide]	100 to 1000	> 10000	–	–
